The experiment deals with PD-L1 (Homo sapiens, UniProt Q9NZQ7). Briefly: HTRF PD-1/PD-L1 binding assay.

pIC50: −log10 of the molar value.

PD-L1, sequence (Q15116 25-288): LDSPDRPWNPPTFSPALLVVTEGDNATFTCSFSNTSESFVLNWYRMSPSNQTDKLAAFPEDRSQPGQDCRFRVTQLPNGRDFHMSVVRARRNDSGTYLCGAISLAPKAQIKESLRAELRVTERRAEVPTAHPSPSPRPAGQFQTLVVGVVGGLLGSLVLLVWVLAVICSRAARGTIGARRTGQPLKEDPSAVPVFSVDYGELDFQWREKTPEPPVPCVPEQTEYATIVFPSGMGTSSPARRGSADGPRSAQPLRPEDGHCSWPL
PD-L1, sequence (Q9NZQ7 19-290): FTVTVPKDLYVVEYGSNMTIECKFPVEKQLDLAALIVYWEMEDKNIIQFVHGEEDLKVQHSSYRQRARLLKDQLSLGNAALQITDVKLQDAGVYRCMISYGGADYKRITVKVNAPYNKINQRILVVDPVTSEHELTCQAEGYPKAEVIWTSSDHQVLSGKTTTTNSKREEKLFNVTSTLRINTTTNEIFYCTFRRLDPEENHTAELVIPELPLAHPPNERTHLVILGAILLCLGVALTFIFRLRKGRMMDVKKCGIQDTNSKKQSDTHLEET

The molecule `Cc1c(COc2ccc(CN3CCN(C)CC3)c(OCc3cn(-c4cccc(C#N)c4)nn3)c2)cccc1-c1ccccc1` [8a, 3-(4-((5-((2-Methylbiphenyl-3-yl)methoxy)-2-((4-methylpiperazin-1yl)methyl)phenoxy)methyl)-1H-1,2,3-triazol-1-yl)benzonitrile] had a pIC50 of 4.85. Then `Cc1c(COc2ccc(CN3CCNCC3)c(OCc3cn(-c4cccc(C#N)c4)nn3)c2)cccc1-c1ccccc1` [compound 7, 3-(4-((5-((2-Methylbiphenyl-3-yl)methoxy)-2-(piperazin-1-ylmethyl)phenoxy)methyl)-1H-1,2,3-triazol-1-yl)benzonitrile], with 5.07.

Source of the values: paper PMC7450630 (ACS Omega, 2020).
